Laboratory results reported in article PMC5207065, “The Ribosome Restrains Molten Globule Formation in Stalled Nascent Flavodoxin” (The Journal of Biological Chemistry, 2016).

How the values were obtained:
Experiment in all cases: FMN fluorescence quenching on binding to apoprotein, time trace
[1] = biological target: T1, flavodoxin (C69A apoflavodoxin; F44Y apoflavodoxin) (Azotobacter vinelandii, UniProt P00324, C70A); conditions: 10 or 100 mM potassium PPi, pH 6.0, 25 °C; 140 nM protein, 25 nM FMN
T1 construct: gene nifF; full-length isolated apoflavodoxin, 179 residues, expressed in E. coli TG2; FMN removed
T1 sequence (P00324 2-180 C70A): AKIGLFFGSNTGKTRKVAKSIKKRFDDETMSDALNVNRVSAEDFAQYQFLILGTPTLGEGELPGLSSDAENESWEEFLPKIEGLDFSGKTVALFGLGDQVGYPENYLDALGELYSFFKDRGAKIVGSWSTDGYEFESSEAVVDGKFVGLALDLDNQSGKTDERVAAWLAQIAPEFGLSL

[2] = biological target: T2, F44YRNC (ribosome-nascent chain complex of F44Y flavodoxin) (Azotobacter vinelandii, UniProt P00324, F45Y/C70A); conditions: buffer I (HEPES-KOH, magnesium acetate), pH 7.4, 25 °C; 50 nM RNC, 25 nM FMN; stalled on ribosome
T2 construct: gene nifF; fusion: triple StrepII tag, Smt3, flavodoxin, TEV site, linker, SecM; stalled on E. coli ribosome, made in vitro with PURExpress, Strep-Tactin purified; tags kept
T2 sequence (P00324 2-180 F45Y/C70A, one chain of several): as the sequence (P00324 2-180 C70A) above, with F44Y counted along it

[3] = biological target: T3, apo-F44YP (released F44Y flavodoxin construct) (Azotobacter vinelandii, UniProt P00324, F45Y/C70A); conditions: 100 mM potassium PPi, 25 °C; refolded apo-F44YP 147 nM, 25 nM FMN
T3 construct: gene nifF; tags kept
T3 sequence (P00324 2-180 F45Y/C70A): as the sequence (P00324 2-180 C70A) above, with F44Y counted along it

Structure (SMILES): Cc1cc2nc3c(=O)[nH]c(=O)nc-3n(C[C@H](O)[C@H](O)[C@H](O)COP(=O)(O)O)c2cc1C [FMN]
- FMN fluorescence quenching on binding to apoprotein, time trace [1]: time-dependent decrease of FMN fluorescence upon cofactor binding to C69A apoflavodoxin
- FMN fluorescence quenching on binding to apoprotein, time trace [2]: F44YRNC binds FMN rapidly at both salt concentrations
- FMN fluorescence quenching on binding to apoprotein, time trace [3]: the FMN binding trace of this refolded apo-F44YP was measured in various buffers
